From patent US20180250306A1, “ALDEHYDE CONJUGATES AND USES THEREOF” (ALDEYRA THERAPEUTICS, INC., priority 2015, published 2018) come the findings set out here.

The subject of experiment [1] is NFκB. As to the kind of experiment: NFκB translocation to the nucleus of cardiac fibroblasts (immunostaining). Conditions: unstimulated cells; for cells with NFκB localization in nuclei: 24 hours (untreated 76.6%). The experiment is classed as cell-based, neonatal rats. Here is the method:
(§1) Thirty hearts from neonatal rats were minced and digested (Neonatal Cardiomyocyte Isolation System, LK003303, Worthington). After tissue digestion and cell dissociation, cell suspensions were plated into 35 mm dishes or onto coverslips in wells of 24-well plates. Serum-free DMEM was added to the cell suspensions and the cells allowed to adhere for 2 hrs. After two hours, the cell suspension was removed and the adherent cells were fed with DMEM containing 10% fetal bovine serum (FBS). Cells were maintained in DMEM+10% FBS for 24 hours before treatments. Treatment duration was 24 hours.
(§2) Cell samples were divided in to 2 groups, stimulated with H2O2 or not stimulated with H2O2. […] The cells that were treated with H2O2 contained a final concentration of 0.001% in the wells. Drug was dissolved in 9.5% Captisol®, to a stock concentration of 5 mg/ml. […] Cells were treated for 24 hours then either fixed for immunostaining or collected as lysates for Western Blot analysis.
After 24 hours of treatment, cells on cover slips were rinsed twice with PBS, fixed in 1% paraformaldehyde for 10 minutes then rinsed in PBS for immunostaining. Cells were permeabilized for 18 minutes in 0.1% Triton-X 100 in PBS, then rinsed three times in PBS for 15 minutes each. Following the rinses, cover slips were incubated in Image-IT FX Signal Enhancer (Invitrogen) to reduce background intensities in images. Subsequently, cells were washed three times 15 min with PBS, followed by one hour of blocking in 10% Normal Goat Serum Cells and 0.05% Triton-X 100, and then incubated overnight in 4° C. with primary antibodies diluted in PBS with 2% Normal Goat Serum and 0.05% Triton-X 100. Antibodies were applied at the following concentrations: Alpha-Smooth Muscle Actin 1:200 (V5228, Sigma-Aldrich), Vimentin 1:200 (V6630, Sigma-Aldrich) and NFκB 1:200 (C-20, Santa Cruz Biotech). Following overnight incubation, cover slips were brought to room temperature over 10 minutes and then rinsed in PBS for 15 min. […]

Experiment [2] deals with NFκB. As to the kind of experiment: Western Blot of NFκB levels in cardiac fibroblasts. The experiment is classed as cell-based, neonatal rats. Here is the method:
as §1, §2
Whole cell lysates were used for Western blotting; nuclear and cytosolic fractions were not prepared. DMEM from cells plated in 35 mm plates was removed, the cells rinsed quickly in PBS, then incubated in 500 ul cold RIPA buffer for 20-30 minutes at 4° C. under gentle rocking. Following RIPA incubation, cells were scraped from the dish using cell scrapers and frozen at −80° C. overnight to increase cell lysing. […]
For orientation: A western blot detects proteins with antibodies after separation by electrophoresis.

With `CC(C)(O)c1nc2ccc(Cl)cc2cc1N` [NS2, 2-(3-amino-6-chloroquinolin-2-yl)propan-2-ol], the “cells with NFκB localization in nuclei” value in experiment [1] (10 μM) was 30.7%; in experiment [1] (100 μM), 35.7%. Besides, the “cells with nuclear NFκB” value in experiment [1] (1 mM, very few cells, not conclusive) was “no cells”. The “NFκB level (Western Blot, whole cell lysate)” value is reported as “significant decreases” in experiment [2] (H2O2-stimulated cells, 100 μM or 1 mM) and “significantly decreased” in experiment [2] (non-stimulated cells).
